What is called solubility is how much of the substance goes into solution per volume. A word on the kinetic solubility: it is solubility judged after dilution from a stock solution rather than from solid.

Data on four compounds can be found in US12384792B2, “Solid forms of isoquinolinones, and process of making, composition comprising, and methods of using the same” (Twelve Therapeutics, Inc., priority 2015, dated 2025).

One data set deals with post-irradiated tumors. The conditions noted are these: cited from earlier work.
Data set [1] in a line: Solubility of Compound 1 in acetonitrile/water during controlled crystallization. The data set is classed as physicochemical. Here is the method:
An appropriate amount of acetonitrile/water were added to bring the solution to 80/20 v/v acetonitrile/water at 20 L/kg of Compound 1. The slurry was agitated and heated to 75° C. until all the Compound 1 was dissolved. The clear solution was polished filtered with a Zapcap filter (0.45 μm). The solution was put back into the reactor and cool down to 65° C.
The mixture was held under agitation at 22° C. for 2 hrs after the end of water addition.
20 L/kg of 80/20 v/v acetonitrile/water was added to Compound 1 solid charged into a reactor. The slurry was agitated and heated to 75° C. until all Compound 1 was dissolved. The clear solution was polish filtered with a Zapcap filter (0.45 μm). The solution was put back into the reactor and cooled down to 65° C.

Data set [2] in a line: Kinetic solubility after 30 min in water and in 0.1M HCl. Format: physicochemical. Conditions: thermodynamic from solid, free base, 30 min, read-out: 30 min Kinetic solubility (pH), free base. The text has this:
See tables below for the summarized results.

The subject of data set [3] is PI3 kinase (e.g., PI3K-delta). Conditions: smoking mice in vivo; cited from earlier work.
Data set [4] has as its system PI3 kinase (e.g., PI3K-delta). Conditions: in vitro; cited from earlier work.
For data set [5], the system named is non-small-cell lung cancer, melanoma, and renal-cell cancer. The conditions noted are these: clinical trial with a total of 296 patients; cited from earlier work.

In brackets after ≈: the same amount, converted by molar mass. Read-outs that look alike come from different tables or passages of the source.

As to `c1cc(CN2CCCNCCNCCCNCC2)ccc1CN1CCCNCCNCCCNCC1` [AMD3100], in the data set on post-irradiated tumors, the “tumor vasculogenesis and tumor regrowth” value was “blocked”.
In the case of `C[C@H](NC(=O)c1c(N)nn2cccnc12)c1cc2cccc(C#Cc3cnn(C)c3)c2c(=O)n1-c1ccccc1` [Compound 1, (S)-2-amino-N-(1-(8-((1-methyl-1H-pyrazol-4-yl)ethynyl)-1-oxo-2-phenyl-1,2-dihydroisoquinolin-3-yl)ethyl)pyrazolo[1,5-a]pyrimidine-3-carboxamide], the solubility in data set [1] (aqueous with cosolvent or surfactant or cyclodextrin, 40/60 v/v acetonitrile/water, 22° C.) was approximately 3000 µg/mL (≈ 5.68 mM); in data set [1] (organic solvent or mixture, 80/20 v/v acetonitrile/water, 22° C.) it was approximately 18000 µg/mL (≈ 34.1 mM); in data set [1] (organic solvent or mixture, 80/20 v/v acetonitrile/water, 65° C.), approximately 50000 µg/mL (≈ 94.6 mM). Moreover, the kinetic solubility at 30 min in data set [2] (0.1M HCl, pH 1.5, simulated gastric fluid, in 0.1M HCl, pH 1.5 and 1.3) is 10 µg/mL (≈ 0.0189 mM); in data set [2] (water, pH 7.1, water, in water (footnote *), pH 7.1 and 6.8), 10 µg/mL (≈ 0.0189 mM).
As to `Cn1c(=O)c2[nH]cnc2n(C)c1=O` [Theophylline, theophylline], the “histone deacetylase-2 and corticosteroid sensitivity” value in data set [3] and in data set [4] was “increases” in each case.
With “nivolumab: fully human IgG4 monoclonal antibody which specifically blocks PD1”, the “response in non-small-cell lung cancer, melanoma, and renal-cell cancer” value in data set [5] is reported as “complete or partial responses”.
